Measured values reported in patent US12077503B2, “Substituted cyclic amides and their use as herbicides” (FMC CORPORATION, priority 2015, dated 2024).

Legend:
Format in all cases: in vivo
[1] = tested on: barnyardgrass (Echinochloa crus-galli); experiment: Test G Pre-Emergence Protocol; conditions: Echinochloa crus-galli, pre-emergence, 312 h, evaluated after 13 days; for pest or weed control at 15.625 g/ha: 15.625 g ai/ha, read-out: Barnyard grass damage rating (100=total damage to plant; 0=no damage to plant); for pest or weed control at 62.5 g/ha: 62.5 g ai/ha, 100=total damage to plant, 0=no damage to plant, read-out: plant damage rating, Barnyardgrass; for pest or weed control at 250 g/ha: 250 g ai/ha, read-out: Barnyardgrass damage rating (100=total damage to plant; 0=no damage to plant)
Summary of the method: (§1)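 Spraying took place one day after sowing, at 15.625, 62.5 or 250 g/ha, using an acetone/water (50:50) spray solution containing 0.5% Tween 20. Plants were kept under glasshouse conditions (24/16 °C, 14 h light, 65% humidity, watered twice daily), and injury was rated 0–100 at day 13.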

corn (Zea mays) [2] = experiment: Test G Pre-Emergence Protocol; conditions: Zea mays, pre-emergence, 312 h, evaluated after 13 days; for plant injury at 15.625 g/ha: 15.625 g ai/ha; for plant injury at 15.625 g/ha / plant injury at 250 g/ha: read-out: Corn damage rating (100=total damage to plant; 0=no damage to plant); for plant injury at 62.5 g/ha: 62.5 g ai/ha, 100=total damage to plant, 0=no damage to plant, read-out: plant damage rating, Corn; for plant injury at 250 g/ha: 250 g ai/ha
Summary of the method: as §1

[3] = tested on: giant foxtail (Setaria faberi); experiment: Test G Pre-Emergence Protocol; conditions: Setaria faberi, pre-emergence, 312 h, evaluated after 13 days; for pest or weed control at 15.625 g/ha: 15.625 g ai/ha; for pest or weed control at 15.625 g/ha / pest or weed control at 250 g/ha: read-out: Foxtail, Giant damage rating (100=total damage to plant; 0=no damage to plant); for pest or weed control at 62.5 g/ha: 62.5 g ai/ha, 100=total damage to plant, 0=no damage to plant, read-out: plant damage rating, Foxtail, Giant; for pest or weed control at 250 g/ha: 250 g ai/ha
Summary of the method: as §1

[4] = tested on: ivy-leaved morning glory (Ipomoea hederacea); experiment: Test G Pre-Emergence Protocol; conditions: Ipomoea, pre-emergence, 312 h, evaluated after 13 days; for pest or weed control at 15.625 g/ha: 15.625 g ai/ha, read-out: Morning-glory, Ivy-leaved damage rating (100=total damage to plant; 0=no damage to plant); for pest or weed control at 62.5 g/ha: 62.5 g ai/ha, 100=total damage to plant, 0=no damage to plant, read-out: plant damage rating, Morningglory, Ivy-leaved; for pest or weed control at 250 g/ha: 250 g ai/ha, read-out: Morningglory, Ivy-leaved damage rating (100=total damage to plant; 0=no damage to plant)
Summary of the method: as §1

[5] = tested on: redroot pigweed (Amaranthus retroflexus); experiment: Test G Pre-Emergence Protocol; conditions: Amaranthus retroflexus, pre-emergence, 312 h, evaluated after 13 days; for pest or weed control at 15.625 g/ha: 15.625 g ai/ha; for pest or weed control at 15.625 g/ha / pest or weed control at 250 g/ha: read-out: Pigweed, Redroot damage rating (100=total damage to plant; 0=no damage to plant); for pest or weed control at 62.5 g/ha: 62.5 g ai/ha, 100=total damage to plant, 0=no damage to plant, read-out: plant damage rating, Pigweed, Redroot; for pest or weed control at 250 g/ha: 250 g ai/ha
Summary of the method: as §1

[6] = tested on: velvetleaf (Abutilon theophrasti); experiment: Test G Pre-Emergence Protocol; conditions: Abutilon theophrasti, pre-emergence, 312 h, evaluated after 13 days; for pest or weed control at 15.625 g/ha: 15.625 g ai/ha; for pest or weed control at 15.625 g/ha / pest or weed control at 250 g/ha: read-out: Velvetleaf damage rating (100=total damage to plant; 0=no damage to plant); for pest or weed control at 62.5 g/ha: 62.5 g ai/ha, 100=total damage to plant, 0=no damage to plant, read-out: plant damage rating, Velvetleaf; for pest or weed control at 250 g/ha: 250 g ai/ha
Summary of the method: as §1

[7] = tested on: barnyardgrass (Echinochloa crus-galli); experiment: Test G Post-Emergence Protocol; conditions: Echinochloa crus-galli, post-emergence, 312 h; for pest or weed control at 15.625 g/ha: 15.625 g ai/ha, evaluated after 13 days (100=total damage to plant; 0=no damage to plant), read-out: Barnyardgrass damage rating; for pest or weed control at 62.5 g/ha: 62.5 g ai/ha, read-out: Barnyardgrass damage rating (100=total damage to plant; 0=no damage to plant); for pest or weed control at 62.5 g/ha / pest or weed control at 250 g/ha: evaluated after 13 days; for pest or weed control at 250 g/ha: 250 g ai/ha, read-out: damage to plant, Barnyardgrass (100=total damage to plant; 0=no damage to plant)
Summary of the method: (§2)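 A glasshouse post-emergence test: 8-day-old plants sprayed at 15.625, 62.5 or 250 g/ha, then grown at 24/16 °C day/night with 14 h light and 65% humidity. Damage rated 13 days later, 0–100.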

corn (Zea mays) [8] = experiment: Test G Post-Emergence Protocol; conditions: Zea mays, post-emergence, 312 h; for plant injury at 15.625 g/ha: 15.625 g ai/ha, evaluated after 13 days (100=total damage to plant; 0=no damage to plant), read-out: Corn damage rating; for plant injury at 62.5 g/ha: 62.5 g ai/ha, read-out: Corn damage rating (100=total damage to plant; 0=no damage to plant); for plant injury at 62.5 g/ha / plant injury at 250 g/ha: evaluated after 13 days; for plant injury at 250 g/ha: 250 g ai/ha, read-out: damage to plant, Corn (100=total damage to plant; 0=no damage to plant)
Summary of the method: as §2

[9] = tested on: giant foxtail (Setaria faberi); experiment: Test G Post-Emergence Protocol; conditions: Setaria faberi, post-emergence, 312 h; for pest or weed control at 15.625 g/ha: 15.625 g ai/ha, evaluated after 13 days (100=total damage to plant; 0=no damage to plant), read-out: Foxtail, Giant damage rating; for pest or weed control at 62.5 g/ha: 62.5 g ai/ha, read-out: Foxtail, Giant damage rating (100=total damage to plant; 0=no damage to plant); for pest or weed control at 62.5 g/ha / pest or weed control at 250 g/ha: evaluated after 13 days; for pest or weed control at 250 g/ha: 250 g ai/ha, read-out: damage to plant, Foxtail, Giant (100=total damage to plant; 0=no damage to plant)
Summary of the method: as §2

[10] = tested on: ivy-leaved morning glory (Ipomoea hederacea); experiment: Test G Post-Emergence Protocol; conditions: Ipomoea, post-emergence, 312 h; for pest or weed control at 15.625 g/ha: 15.625 g ai/ha, evaluated after 13 days (100=total damage to plant; 0=no damage to plant), read-out: Morningglory, Ivy-leaved damage rating; for pest or weed control at 62.5 g/ha: 62.5 g ai/ha, read-out: Morningglory, Ivy-leaved damage rating (100=total damage to plant; 0=no damage to plant); for pest or weed control at 62.5 g/ha / pest or weed control at 250 g/ha: evaluated after 13 days; for pest or weed control at 250 g/ha: 250 g ai/ha, read-out: damage to plant, Morningglory, Ivy-leaved (100=total damage to plant; 0=no damage to plant)
Summary of the method: as §2

[11] = tested on: redroot pigweed (Amaranthus retroflexus); experiment: Test G Post-Emergence Protocol; conditions: Amaranthus retroflexus, post-emergence, 312 h; for pest or weed control at 15.625 g/ha: 15.625 g ai/ha, evaluated after 13 days (100=total damage to plant; 0=no damage to plant), read-out: Pigweed, Redroot damage rating; for pest or weed control at 62.5 g/ha: 62.5 g ai/ha, read-out: Pigweed, Redroot damage rating (100=total damage to plant; 0=no damage to plant); for pest or weed control at 62.5 g/ha / pest or weed control at 250 g/ha: evaluated after 13 days; for pest or weed control at 250 g/ha: 250 g ai/ha, read-out: damage to plant, Pigweed, Redroot (100=total damage to plant; 0=no damage to plant)
Summary of the method: as §2

[12] = tested on: velvetleaf (Abutilon theophrasti); experiment: Test G Post-Emergence Protocol; conditions: Abutilon theophrasti, post-emergence, 312 h; for pest or weed control at 15.625 g/ha: 15.625 g ai/ha, evaluated after 13 days (100=total damage to plant; 0=no damage to plant), read-out: Velvetleaf damage rating; for pest or weed control at 62.5 g/ha: 62.5 g ai/ha, read-out: Velvetleaf damage rating (100=total damage to plant; 0=no damage to plant); for pest or weed control at 62.5 g/ha / pest or weed control at 250 g/ha: evaluated after 13 days; for pest or weed control at 250 g/ha: 250 g ai/ha, read-out: damage to plant, Velvetleaf (100=total damage to plant; 0=no damage to plant)
Summary of the method: as §2

Row | SMILES | pest or weed control at 15.625 g/ha [1] | pest or weed control at 62.5 g/ha [1] | pest or weed control at 250 g/ha [1] | plant injury at 15.625 g/ha (corn (Zea mays) [2]) | plant injury at 62.5 g/ha (corn (Zea mays) [2]) | plant injury at 250 g/ha (corn (Zea mays) [2]) | pest or weed control at 15.625 g/ha [3] | pest or weed control at 62.5 g/ha [3] | pest or weed control at 250 g/ha [3] | pest or weed control at 15.625 g/ha [4] | pest or weed control at 62.5 g/ha [4] | pest or weed control at 250 g/ha [4] | pest or weed control at 15.625 g/ha [5] | pest or weed control at 62.5 g/ha [5] | pest or weed control at 250 g/ha [5] | pest or weed control at 15.625 g/ha [6] | pest or weed control at 62.5 g/ha [6] | pest or weed control at 250 g/ha [6] | pest or weed control at 15.625 g/ha [7] | pest or weed control at 62.5 g/ha [7] | other results
1 | COc1cc([C@@H]2CN(C)C(=O)[C@H]2C(=O)Nc2cccc(F)c2F)ccn1 (racemic) [Compound 1480] | 30% | 80% | 90% | 20% | 30% | 80% | 40% | 90% | 90% | 0% | 0% | 70% | 0% | 0% | 40% | 0% | 0% | 10% | 50% | 70% | pest or weed control at 250 g/ha [7]: 80%; plant injury at 15.625 g/ha (corn (Zea mays) [8]): 20%; plant injury at 62.5 g/ha (corn (Zea mays) [8]): 20%; plant injury at 250 g/ha (corn (Zea mays) [8]): 60%; pest or weed control at 15.625 g/ha [9]: 60%; pest or weed control at 62.5 g/ha [9]: 70%; pest or weed control at 250 g/ha [9]: 70%; pest or weed control at 15.625 g/ha [10]: 0%; pest or weed control at 62.5 g/ha [10]: 0%; pest or weed control at 250 g/ha [10]: 20%; pest or weed control at 15.625 g/ha [11]: 0%; pest or weed control at 62.5 g/ha [11]: 0%; pest or weed control at 250 g/ha [11]: 10%; pest or weed control at 15.625 g/ha [12]: 0%; pest or weed control at 62.5 g/ha [12]: 0%; pest or weed control at 250 g/ha [12]: 20%
2 | Cc1cc([C@@H]2CN(C)C(=O)[C@H]2C(=O)Nc2cccc(F)c2F)cnc1Cl (racemic) [Compound 1493] | 40% | 90% | 90% | 0% | 0% | 70% | 60% | 80% | 90% | 0% | 0% | 10% | 0% | 0% | 0% | 0% | 0% | 0% | 40% | 70% | pest or weed control at 250 g/ha [7]: 80%; plant injury at 15.625 g/ha (corn (Zea mays) [8]): 10%; plant injury at 62.5 g/ha (corn (Zea mays) [8]): 40%; plant injury at 250 g/ha (corn (Zea mays) [8]): 80%; pest or weed control at 15.625 g/ha [9]: 40%; pest or weed control at 62.5 g/ha [9]: 60%; pest or weed control at 250 g/ha [9]: 60%; pest or weed control at 15.625 g/ha [10]: 0%; pest or weed control at 62.5 g/ha [10]: 0%; pest or weed control at 250 g/ha [10]: 0%; pest or weed control at 15.625 g/ha [11]: 0%; pest or weed control at 62.5 g/ha [11]: 0%; pest or weed control at 250 g/ha [11]: 0%; pest or weed control at 15.625 g/ha [12]: 0%; pest or weed control at 62.5 g/ha [12]: 0%; pest or weed control at 250 g/ha [12]: 0%
